Results on one compound are retold here after patent US8101761B2, “(E)-N-{3-[1-(8-fluoro-11H-10-OXA-1-AZA-dibenzo [A,D] cyclohepten-5ylidene)-propyl]-phenyl}-methanesulfonamide as glucocorticoid receptor modulator for the treatment of rheumatoid arthritis” (Eli Lilly and Company, priority 2008, dated 2012).

Assay [1] deals with IL-6 production in human skin fibroblast CCD-39SK cells. The experiment in a line: GR-mediated transrepression: IL-1β-stimulated IL-6 production in human skin fibroblast CCD-39SK cells. The assay is classed as cell-based. The following applies: IL-1β 1 ng/ml. The procedure:
1. IL-1,3-stimulated IL-6 Production in Human Skin Fibroblast CCD-39SK Cells:
Briefly, human skin fibroblast CCD-39SK cells (20,000 cells/well), obtained from ATCC are seeded in 96-well plates in […] growth medium supplemented with 10% FBS, 100 U/ml penicillin, 100 ug/ml streptomycin and 2 mmol/L L-glutamine. Cells are maintained in a humidified chamber with 5% CO2 at 37° C. Test compounds are added to the wells in various concentrations ranging from a final concentration of about […] to 4.64 μM. 0.1 μM of dexamethasone is used as a positive control. 1-hour post treatment with test compound, IL-1β is added at final concentration of 1 ng/ml; and the reaction mixture is incubated overnight. 10 μl of supernatant is removed from each well and IL-6 concentrations are determined using an ELISA kit, with IL-6 concentrations being quantified by reading absorbance at 450 nm.

The test system of assay [2] is TNF-α production in PMA-differentiated U937 cells. Kind of assay: GR-mediated transrepression: LPS-stimulated TNF-α production in PMA-differentiated U937 cells. Format: cell-based, human. As for the experimental part: 2. LPS-Stimulated TNF-α Production in PMA-Differentiated U937 Cells:
Human U937 pre-monocytic cells, obtained from ATCC, are grown in complete RPMI 1640 medium containing 10% FBS. To allow monocytes to differentiate to adherent macrophages, U937 cells are washed in calcium, magnesium free and resuspended in fresh RPMI medium containing 20 nM phorbol 12-myristate-13-acetate (PMA) overnight. After differentiation, test compounds are added to the cells in the 96-well plate at various concentrations ranging from about 4.65 pM to 4.64 μM. 1-hour post treatment with test compound, LPS is added at final concentration of 100 ng/ml and the reaction mixture is incubated overnight. 25 μl cell-free supernatant is transferred from each well to another 96-well plate and TNF-α production is measured using an ELISA kit with TNF-α being quantified by reading absorbance at 450 nm.

In assay [3] the target is T1, human MR (mineralocorticoid receptor) (Homo sapiens, UniProt P08235).
T1 construct: expressed in transfected cells; host or cells: HEK293 (293-MR lysate)
T1 sequence (P08235 1-984): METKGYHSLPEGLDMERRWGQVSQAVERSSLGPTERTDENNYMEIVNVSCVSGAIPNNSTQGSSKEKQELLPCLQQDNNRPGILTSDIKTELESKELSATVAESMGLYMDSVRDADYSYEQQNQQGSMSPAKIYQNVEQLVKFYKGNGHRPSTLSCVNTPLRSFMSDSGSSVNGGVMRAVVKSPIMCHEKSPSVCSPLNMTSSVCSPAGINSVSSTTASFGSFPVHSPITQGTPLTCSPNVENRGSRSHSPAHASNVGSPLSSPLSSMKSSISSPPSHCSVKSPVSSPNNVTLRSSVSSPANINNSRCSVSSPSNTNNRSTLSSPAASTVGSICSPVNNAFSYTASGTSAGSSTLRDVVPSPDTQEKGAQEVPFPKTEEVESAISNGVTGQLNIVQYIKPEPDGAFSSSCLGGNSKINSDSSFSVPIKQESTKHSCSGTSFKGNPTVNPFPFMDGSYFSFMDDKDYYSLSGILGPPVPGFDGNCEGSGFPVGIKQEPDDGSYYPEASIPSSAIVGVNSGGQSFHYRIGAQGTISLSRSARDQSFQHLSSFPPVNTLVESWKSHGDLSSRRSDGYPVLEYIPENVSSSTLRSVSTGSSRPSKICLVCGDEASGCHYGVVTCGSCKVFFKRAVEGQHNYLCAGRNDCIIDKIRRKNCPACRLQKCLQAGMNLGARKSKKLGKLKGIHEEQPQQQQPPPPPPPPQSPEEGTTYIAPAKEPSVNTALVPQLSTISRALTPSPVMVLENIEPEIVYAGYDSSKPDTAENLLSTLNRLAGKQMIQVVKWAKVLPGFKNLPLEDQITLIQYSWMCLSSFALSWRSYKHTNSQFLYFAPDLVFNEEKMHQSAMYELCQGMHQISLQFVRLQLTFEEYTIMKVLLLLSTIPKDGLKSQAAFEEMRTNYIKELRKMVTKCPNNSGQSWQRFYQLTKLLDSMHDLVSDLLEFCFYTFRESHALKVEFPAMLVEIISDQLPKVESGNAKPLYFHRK
The experiment in a line: Nuclear hormone receptor competition binding assay, MR. Conditions: HEK293 lysate overexpressing human MR, [3H]-aldosterone; mean of n=7. The procedure:
Cell lysates from human embryonic kidney HEK293 cells overexpressing human GR (glucocorticoid receptor), AR (androgen receptor), MR (mineralocorticoid receptor), or PR (progesterone receptor) are used for receptor-ligand competition binding assays to determine Ki values.
Briefly, steroid receptor competition binding assays are run in a buffer containing 20 mM Hepes buffer (pH=7.6), 0.2 mM EDTA, 75 mM NaCl, 1.5 mM MgCl2, 20% glycerol, 20 mM sodium molybdate, 0.2 mM DTT (dithiothreitol), 20 μg/ml aprotinin and 20 μg/ml leupeptin. Typically, steroid receptor binding assays include radio-labeled ligands, such as 0.3 nM [^3H]-dexamethasone for GR binding, 0.36 nM [^3H]-methyltrienolone for AR binding, 0.25 nM [^3H]-aldosterone for MR binding, and 0.29 nM [^3H]-methyltrienolone for PR binding, and either 20 μg 293-GR lysate, 22 μg 293-AR lysate, 20 μg 293-MR lysate or 40 μg 293-PR lysate per well. Assays are typically run in 96-well format. Competing test compounds are added at various concentrations ranging from about 0.01 nM to 10 μM. Non-specific binding is determined in the presence of 500 nM dexamethasone for GR binding, 500 nM aldosterone for MR binding, or 500 nM methyltrienolone for AR and PR binding. […] After an incubation of 2 hours, plates are read in a Wallac Microbeta counter. […]

For orientation: IC50 means the concentration at which inhibition is half-maximal. The term Ki denotes a measure of affinity in units of concentration, obtained from inhibition or displacement. A high value points to weaker binding. As for `CC/C(=C1\c2ccc(F)cc2OCc2ncccc21)c1cccc(NS(C)(=O)=O)c1` [Compound (I), (E)-N-{3-[1-(8-Fluoro-11H-10-oxa-1-aza-dibenzo[a,d]cyclohepten-5-ylidene)-propyl]-phenyl}-methanesulfonamide], the IC50 in assay [1] (Homo sapiens, Skin fibroblast, average of n=15, read-out: IC50, inhibition of IL-6 expression) was about 8.5 nM; in assay [2] (Homo sapiens, U-937, LPS 100 ng/ml, average of n=4, read-out: IC50, inhibition of TNF-α expression), about 21 nM. Further, the “maximal inhibition of the endogenous expression of IL-6” value in assay [1] (n=15) is at least 90%. Moreover, in assay [2] (LPS 100 ng/ml, n=4), the “maximal inhibition of the endogenous expression of TNF-α” value is on record as at least 90%. In assay [3], this compound had a Ki of about 9.2 nM.
